The CheMixHub viscosity set
± gives the uncertainty stated by the source.

Test: xn = mol fraction of the nth substance listed

Clc1ccccc1 + Cc1ccccc1
Details | viscosity [mPa·s]
293.15 K, 101 kPa, x1 = 0.0994 | 0.6134 ± 0.016
293.15 K, 101 kPa, x1 = 0.2021 | 0.635 ± 0.017
293.15 K, 101 kPa, x1 = 0.2979 | 0.6571 ± 0.017
293.15 K, 101 kPa, x1 = 0.3973 | 0.6775 ± 0.018
293.15 K, 101 kPa, x1 = 0.5013 | 0.7014 ± 0.019
293.15 K, 101 kPa, x1 = 0.6023 | 0.7232 ± 0.019
293.15 K, 101 kPa, x1 = 0.7024 | 0.7433 ± 0.02
293.15 K, 101 kPa, x1 = 0.8007 | 0.7655 ± 0.02
293.15 K, 101 kPa, x1 = 0.9047 | 0.786 ± 0.021
293.15 K, 101 kPa, x2 = 0.2 | 0.751 ± 0.013
293.15 K, 101 kPa, x2 = 0.4 | 0.709 ± 0.012
293.15 K, 101 kPa, x2 = 0.6 | 0.667 ± 0.012
293.15 K, 101 kPa, x2 = 0.8 | 0.626 ± 0.011
294.55 K, 101.33 kPa, x1 = 0.2 | 0.6717 ± 0.0078
294.55 K, 101.33 kPa, x1 = 0.7 | 0.7968 ± 0.0092
294.75 K, 101.33 kPa, x1 = 0.3 | 0.6949 ± 0.0081
294.85 K, 101.33 kPa, x1 = 0.1 | 0.6367 ± 0.0074
295.05 K, 101.33 kPa, x1 = 0.4 | 0.7214 ± 0.0084
298.15 K, 101 kPa, x1 = 0.0994 | 0.5773 ± 0.015
298.15 K, 101 kPa, x1 = 0.2021 | 0.5971 ± 0.016
298.15 K, 101 kPa, x1 = 0.2979 | 0.6179 ± 0.016
298.15 K, 101 kPa, x1 = 0.3973 | 0.6368 ± 0.017
298.15 K, 101 kPa, x1 = 0.5013 | 0.6596 ± 0.017
298.15 K, 101 kPa, x1 = 0.6023 | 0.6799 ± 0.018
298.15 K, 101 kPa, x1 = 0.7024 | 0.6984 ± 0.018
298.15 K, 101 kPa, x1 = 0.8007 | 0.7195 ± 0.019
298.15 K, 101 kPa, x1 = 0.9047 | 0.7386 ± 0.019
298.15 K, 101 kPa, x2 = 0.101 | 0.7515 ± 0.0078
298.15 K, 101 kPa, x2 = 0.2035 | 0.7315 ± 0.0077
298.15 K, 101 kPa, x2 = 0.243 | 0.687 ± 0.007
298.15 K, 101 kPa, x2 = 0.3026 | 0.7086 ± 0.0076
298.15 K, 101 kPa, x2 = 0.4005 | 0.6929 ± 0.0075
298.15 K, 101 kPa, x2 = 0.45 | 0.646 ± 0.007
298.15 K, 101 kPa, x2 = 0.5004 | 0.6721 ± 0.0074
298.15 K, 101 kPa, x2 = 0.6014 | 0.6486 ± 0.0073
298.15 K, 101 kPa, x2 = 0.643 | 0.608 ± 0.006
298.15 K, 101 kPa, x2 = 0.7008 | 0.6321 ± 0.0072
298.15 K, 101 kPa, x2 = 0.803 | 0.577 ± 0.006
298.15 K, 101 kPa, x2 = 0.8048 | 0.6088 ± 0.0071
298.15 K, 101 kPa, x2 = 0.8995 | 0.592 ± 0.007
303.15 K, 101 kPa, x1 = 0.0994 | 0.5443 ± 0.015
303.15 K, 101 kPa, x1 = 0.2021 | 0.5628 ± 0.015
303.15 K, 101 kPa, x1 = 0.2979 | 0.5824 ± 0.015
303.15 K, 101 kPa, x1 = 0.3973 | 0.5999 ± 0.016
303.15 K, 101 kPa, x1 = 0.5013 | 0.6212 ± 0.017
303.15 K, 101 kPa, x1 = 0.6023 | 0.6405 ± 0.017
303.15 K, 101 kPa, x1 = 0.7024 | 0.6579 ± 0.017
303.15 K, 101 kPa, x1 = 0.8007 | 0.6779 ± 0.018
303.15 K, 101 kPa, x1 = 0.9047 | 0.6957 ± 0.018
303.15 K, 101 kPa, x2 = 0.0961 | 0.6999 ± 0.0062
303.15 K, 101 kPa, x2 = 0.101 | 0.7125 ± 0.0076
303.15 K, 101 kPa, x2 = 0.193 | 0.6791 ± 0.006
303.15 K, 101 kPa, x2 = 0.2035 | 0.6925 ± 0.0075
303.15 K, 101 kPa, x2 = 0.2907 | 0.6641 ± 0.0059
303.15 K, 101 kPa, x2 = 0.3026 | 0.6713 ± 0.0074
303.15 K, 101 kPa, x2 = 0.3894 | 0.6454 ± 0.0058
303.15 K, 101 kPa, x2 = 0.4005 | 0.6547 ± 0.0073
303.15 K, 101 kPa, x2 = 0.4889 | 0.63 ± 0.0056
303.15 K, 101 kPa, x2 = 0.5004 | 0.637 ± 0.0072
303.15 K, 101 kPa, x2 = 0.5893 | 0.6109 ± 0.0055
303.15 K, 101 kPa, x2 = 0.6014 | 0.6131 ± 0.0071
303.15 K, 101 kPa, x2 = 0.6906 | 0.5935 ± 0.0054
303.15 K, 101 kPa, x2 = 0.7008 | 0.5992 ± 0.007
303.15 K, 101 kPa, x2 = 0.7928 | 0.5753 ± 0.0052
303.15 K, 101 kPa, x2 = 0.8048 | 0.577 ± 0.0069
303.15 K, 101 kPa, x2 = 0.8959 | 0.5561 ± 0.0051
303.15 K, 101 kPa, x2 = 0.8995 | 0.5584 ± 0.0068
303.25 K, 101.33 kPa, x1 = 0.7 | 0.7203 ± 0.0083
303.35 K, 101.33 kPa, x1 = 0.3 | 0.6272 ± 0.0072
303.55 K, 101.33 kPa, x1 = 0.1 | 0.5816 ± 0.0067
303.75 K, 101.33 kPa, x1 = 0.4 | 0.6426 ± 0.0074
304.15 K, 101.33 kPa, x1 = 0.2 | 0.6008 ± 0.0069
308.15 K, 101 kPa, x2 = 0.101 | 0.6704 ± 0.0074
308.15 K, 101 kPa, x2 = 0.2035 | 0.6518 ± 0.0073
308.15 K, 101 kPa, x2 = 0.3026 | 0.6334 ± 0.0072
308.15 K, 101 kPa, x2 = 0.4005 | 0.6181 ± 0.0071
308.15 K, 101 kPa, x2 = 0.5004 | 0.5983 ± 0.007
308.15 K, 101 kPa, x2 = 0.6014 | 0.5769 ± 0.0069
308.15 K, 101 kPa, x2 = 0.7008 | 0.5641 ± 0.0069
308.15 K, 101 kPa, x2 = 0.8048 | 0.5447 ± 0.0068
308.15 K, 101 kPa, x2 = 0.8995 | 0.5279 ± 0.0067
313.05 K, 101.33 kPa, x1 = 0.3 | 0.5636 ± 0.0065
313.15 K, 101 kPa, x1 = 0.0994 | 0.4872 ± 0.013
313.15 K, 101 kPa, x1 = 0.2021 | 0.503 ± 0.013
313.15 K, 101 kPa, x1 = 0.2979 | 0.5205 ± 0.014
313.15 K, 101 kPa, x1 = 0.3973 | 0.536 ± 0.014
313.15 K, 101 kPa, x1 = 0.5013 | 0.5551 ± 0.015
313.15 K, 101 kPa, x1 = 0.6023 | 0.5721 ± 0.015
313.15 K, 101 kPa, x1 = 0.7024 | 0.5874 ± 0.016
313.15 K, 101 kPa, x1 = 0.8007 | 0.6056 ± 0.016
313.15 K, 101 kPa, x1 = 0.9047 | 0.6216 ± 0.017
313.15 K, 101 kPa, x2 = 0.0961 | 0.6302 ± 0.0057
313.15 K, 101 kPa, x2 = 0.101 | 0.6317 ± 0.0072
313.15 K, 101 kPa, x2 = 0.193 | 0.6128 ± 0.0055
313.15 K, 101 kPa, x2 = 0.2 | 0.597 ± 0.01
313.15 K, 101 kPa, x2 = 0.2035 | 0.6152 ± 0.0071
313.15 K, 101 kPa, x2 = 0.2907 | 0.5947 ± 0.0054
313.15 K, 101 kPa, x2 = 0.3026 | 0.5974 ± 0.007
313.15 K, 101 kPa, x2 = 0.3894 | 0.5789 ± 0.0053
313.15 K, 101 kPa, x2 = 0.4 | 0.564 ± 0.01
313.15 K, 101 kPa, x2 = 0.4005 | 0.5833 ± 0.007
313.15 K, 101 kPa, x2 = 0.4889 | 0.5763 ± 0.0053
313.15 K, 101 kPa, x2 = 0.5004 | 0.5662 ± 0.0069
313.15 K, 101 kPa, x2 = 0.5893 | 0.5475 ± 0.0051
313.15 K, 101 kPa, x2 = 0.6 | 0.53 ± 0.009
313.15 K, 101 kPa, x2 = 0.6014 | 0.545 ± 0.0067
313.15 K, 101 kPa, x2 = 0.6906 | 0.5414 ± 0.005
313.15 K, 101 kPa, x2 = 0.7008 | 0.5312 ± 0.0067
313.15 K, 101 kPa, x2 = 0.7928 | 0.5159 ± 0.0048
313.15 K, 101 kPa, x2 = 0.8 | 0.498 ± 0.009
313.15 K, 101 kPa, x2 = 0.8048 | 0.5134 ± 0.0066
313.15 K, 101 kPa, x2 = 0.8959 | 0.5005 ± 0.0047
313.15 K, 101 kPa, x2 = 0.8995 | 0.4983 ± 0.0065
313.25 K, 101.33 kPa, x1 = 0.1 | 0.5257 ± 0.0061
313.25 K, 101.33 kPa, x1 = 0.4 | 0.5837 ± 0.0067
313.35 K, 101.33 kPa, x1 = 0.2 | 0.5458 ± 0.0063
313.65 K, 101.33 kPa, x1 = 0.7 | 0.6385 ± 0.0074
322.55 K, 101.33 kPa, x1 = 0.3 | 0.5132 ± 0.0059
322.75 K, 101.33 kPa, x1 = 0.1 | 0.478 ± 0.0055
322.85 K, 101.33 kPa, x1 = 0.2 | 0.4964 ± 0.0057
323.15 K, 101 kPa, x2 = 0.0961 | 0.5575 ± 0.0051
323.15 K, 101 kPa, x2 = 0.193 | 0.5432 ± 0.005
323.15 K, 101 kPa, x2 = 0.2907 | 0.531 ± 0.0049
323.15 K, 101 kPa, x2 = 0.3894 | 0.5111 ± 0.0048
323.15 K, 101 kPa, x2 = 0.4889 | 0.5008 ± 0.0047
323.15 K, 101 kPa, x2 = 0.5893 | 0.4829 ± 0.0046
323.15 K, 101 kPa, x2 = 0.6906 | 0.4715 ± 0.0045
323.15 K, 101 kPa, x2 = 0.7928 | 0.4539 ± 0.0044
323.15 K, 101 kPa, x2 = 0.8959 | 0.4396 ± 0.0042
323.15 K, 101.33 kPa, x1 = 0.4 | 0.5282 ± 0.0061
